Assay results published in paper PMC12217528, “Structural basis of topoisomerase targeting by delafloxacin” (Nature Communications, 2025).

Columns and labels:
Format in all cases: biochemical
[1] = biological target: T1, topoisomerase IV (ParC subunit, ParE30-ParC55 fusion) (Streptococcus pneumoniae, UniProt P72525+Q59961); test: supercoiled pBR322 DNA cleavage assay (cleavage complex stabilisation); design: ParE30-ParC55 fusion protein; with ParE (ParE30 TOPRIM domain), with DNA
Target sequence in this assay (P72525 1-490): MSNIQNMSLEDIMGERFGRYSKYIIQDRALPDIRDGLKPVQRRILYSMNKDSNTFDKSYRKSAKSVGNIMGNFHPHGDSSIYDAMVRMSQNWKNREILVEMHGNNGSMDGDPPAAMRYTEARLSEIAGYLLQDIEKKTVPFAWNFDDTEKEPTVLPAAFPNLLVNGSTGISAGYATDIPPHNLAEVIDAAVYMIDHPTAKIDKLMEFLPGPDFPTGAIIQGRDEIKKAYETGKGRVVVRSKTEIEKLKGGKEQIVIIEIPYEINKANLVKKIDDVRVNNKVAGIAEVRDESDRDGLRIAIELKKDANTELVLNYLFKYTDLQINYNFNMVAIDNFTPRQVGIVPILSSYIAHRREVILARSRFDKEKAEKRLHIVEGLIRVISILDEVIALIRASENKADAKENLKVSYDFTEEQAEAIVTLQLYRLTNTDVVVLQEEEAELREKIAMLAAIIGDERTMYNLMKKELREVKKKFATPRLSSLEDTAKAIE
Target sequence in this assay (Q59961 404-647): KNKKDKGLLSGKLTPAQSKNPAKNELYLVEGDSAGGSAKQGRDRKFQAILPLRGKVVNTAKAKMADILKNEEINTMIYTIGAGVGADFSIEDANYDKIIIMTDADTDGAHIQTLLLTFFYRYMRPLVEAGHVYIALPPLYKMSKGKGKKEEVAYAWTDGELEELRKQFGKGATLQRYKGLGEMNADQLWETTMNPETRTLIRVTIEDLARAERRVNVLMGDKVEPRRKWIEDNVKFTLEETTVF

[2] = biological target: T1, topoisomerase IV (ParC subunit, ParE30-ParC55 fusion); test: X-ray co-crystal structures at […] and […] Å; DNA cleavage assay with purified enzyme; design: ParE30-ParC55 fusion protein (ParE TOPRIM domain + ParC breakage-reunion domain), C-terminal His6; with ParE (ParE30 TOPRIM domain), with 18-mer V-site or E-site gate DNA
Target sequence in this assay (Q59961 404-647): as above
Target sequence in this assay (P72525 1-490): as the sequence (P72525 1-490) above

[3] = biological target: T2, DNA gyrase (GyrA subunit) (Streptococcus pneumoniae, UniProt P0A4M0+Q8DPM2); test: supercoiled pBR322 DNA cleavage assay (cleavage complex stabilisation)
T2 construct: full-length GyrA reconstituted with GyrB; with GyrB, with DNA
T2 sequence (Q8DPM2 whole entry): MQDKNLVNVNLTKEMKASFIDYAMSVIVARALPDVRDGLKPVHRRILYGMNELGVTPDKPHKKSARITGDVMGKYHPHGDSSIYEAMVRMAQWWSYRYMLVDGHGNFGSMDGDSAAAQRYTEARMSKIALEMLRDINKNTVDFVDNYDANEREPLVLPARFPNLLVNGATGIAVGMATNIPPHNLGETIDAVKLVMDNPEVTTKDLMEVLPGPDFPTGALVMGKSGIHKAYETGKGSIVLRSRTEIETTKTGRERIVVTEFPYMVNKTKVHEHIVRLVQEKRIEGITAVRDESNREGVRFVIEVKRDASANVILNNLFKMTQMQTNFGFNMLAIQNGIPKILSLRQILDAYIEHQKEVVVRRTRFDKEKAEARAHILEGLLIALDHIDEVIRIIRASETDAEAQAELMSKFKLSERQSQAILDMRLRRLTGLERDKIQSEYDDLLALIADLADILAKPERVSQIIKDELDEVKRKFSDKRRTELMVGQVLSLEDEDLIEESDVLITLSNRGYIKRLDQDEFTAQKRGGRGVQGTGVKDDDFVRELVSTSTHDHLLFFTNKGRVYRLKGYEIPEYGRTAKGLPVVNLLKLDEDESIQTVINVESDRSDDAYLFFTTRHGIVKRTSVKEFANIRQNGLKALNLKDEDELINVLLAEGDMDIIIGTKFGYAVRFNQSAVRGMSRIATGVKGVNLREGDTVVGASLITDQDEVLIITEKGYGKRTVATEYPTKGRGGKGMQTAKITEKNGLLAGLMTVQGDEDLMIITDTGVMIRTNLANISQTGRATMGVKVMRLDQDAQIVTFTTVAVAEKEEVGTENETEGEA
T2 sequence (P0A4M0 whole entry): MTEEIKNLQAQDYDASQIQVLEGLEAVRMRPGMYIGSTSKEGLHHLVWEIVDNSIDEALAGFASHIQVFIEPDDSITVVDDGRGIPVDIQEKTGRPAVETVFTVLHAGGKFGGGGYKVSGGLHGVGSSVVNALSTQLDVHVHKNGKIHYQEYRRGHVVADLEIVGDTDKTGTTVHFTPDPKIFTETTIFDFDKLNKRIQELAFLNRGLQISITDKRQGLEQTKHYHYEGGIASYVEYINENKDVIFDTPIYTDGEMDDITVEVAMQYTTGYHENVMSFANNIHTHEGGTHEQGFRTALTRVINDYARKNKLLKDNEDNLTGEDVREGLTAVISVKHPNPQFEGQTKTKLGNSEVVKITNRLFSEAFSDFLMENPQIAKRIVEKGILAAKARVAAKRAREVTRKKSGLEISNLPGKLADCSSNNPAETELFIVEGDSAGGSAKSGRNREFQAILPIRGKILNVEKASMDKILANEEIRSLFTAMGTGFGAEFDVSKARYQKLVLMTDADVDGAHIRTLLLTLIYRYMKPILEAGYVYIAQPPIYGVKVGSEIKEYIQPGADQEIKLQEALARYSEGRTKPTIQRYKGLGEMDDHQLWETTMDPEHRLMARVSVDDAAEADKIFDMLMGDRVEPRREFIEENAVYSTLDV

Structure (SMILES) | supercoiled pBR322 DNA cleavage assay (cleavage complex stabilisation) [1] [µM] | X-ray co-crystal structures at 2.0 and 2.4 Å; DNA cleavage assay with purified e [2] [µM] | supercoiled pBR322 DNA cleavage assay (cleavage complex stabilisation) [3]
C[C@H]1COc2c(N3CCN(C)CC3)c(F)cc3c(=O)c(C(=O)O)cn1c23 [Levofloxacin] | 2.5 | – | –
Nc1nc(-n2cc(C(=O)O)c(=O)c3cc(F)c(N4CC(O)C4)c(Cl)c32)c(F)cc1F [Delafloxacin] | – | 0.12 | 2.5–5.0 µM
